Assay results published in US20110189293A1, “THERAPEUTIC REGIMENS FOR THE TREATMENT OF IMMUNOINFLAMMATORY DISORDERS” (CombinatoRx, Incoporated, priority 2007, published 2011).

Assays:
[1] = cited from earlier work; for Equivalent dose, equal to 5 mg prednisolone: BNF guidelines
[2] = Equivalent corticosteroid dosing (BNF clinical dosing equivalence); conditions: BNF guidelines
Protocol: Equivalent potency in clinical dosing is well known.
The BNF guidelines are included in Table 2 below. More specifically, Table 2 provides doses of corticosteroids equivalent to 5 mg of prednisolone and equivalent to 1 mg of prednisolone when administered in a manner according to this invention.

Molecule | Equivalent dose, equal to 5 mg prednisolone [1] [mg] | Equivalent dose, equal to 1 mg prednisolone [2] [mg] | broadly similar dose from clinical dosing equivalence ([1]; nasal administration, BNF 37 March 1999) [µg]
CC(=O)OCC(=O)[C@@]12N=C(C)O[C@@H]1C[C@H]1[C@@H]3CCC4=CC(=O)C=C[C@]4(C)[C@H]3[C@@H](O)C[C@@]12C [Deflazacort] | 6 | 1.2 | 
C[C@]12CCC(=O)C=C1CC[C@@H]1[C@@H]2[C@@H](O)C[C@@]2(C)[C@H]1CC[C@]2(O)C(=O)CO [Hydrocortisone] | 20 | 4 | 
C[C@]12C=CC(=O)C=C1CC[C@H]1[C@@H]3C[C@@H](O)[C@](O)(C(=O)CO)[C@@]3(C)C[C@H](O)[C@@]12F [Triamcinolone] | 4 | 0.8 | 110
CC(=O)OCC(=O)[C@@]1(O)CC[C@H]2[C@@H]3CCC4=CC(=O)CC[C@]4(C)[C@H]3C(=O)C[C@@]21C [cortisone acetate] | 25 | 5 | 
methyl prednisone | 4 | 0.8 | 
